Results as given in patent US20070128217A1 (priority 2003, published 2007).

Legend:
[1] = test system: antibodies in sera from SARS patients (sera 1a, 1b, 2, 6, 37, 62, London, SARS-yellow, SARS-green); assay type: binding, human; design: Binding of serum 6 to linear peptides of protein X1 of SARS-CoV Urbani / Binding of serum 37 to linear peptides of protein X1 of SARS-CoV Urbani / Binding of serum 6 to looped/cyclic peptide (PEPSCAN-ELISA) / Binding of serum 37 to looped/cyclic peptide (PEPSCAN-ELISA) / Binding of serum 37 to looped/cyclic peptides of protein X1 of SARS-CoV Urbani / Binding of serum 6 to linear peptides of protein X2 / Binding of serum 37 to linear peptides of protein X2 / Binding of serum 37 to looped/cyclic peptides of protein X2 of SARS-CoV Urbani / Binding of serum 6 to linear peptides of protein M of SARS-CoV Urbani / Binding of serum 37 to linear peptides of protein M of SARS-CoV Urbani / Binding of serum 6 to looped/cyclic peptides of protein M of SARS-CoV Urbani / Binding of serum 37 to looped/cyclic peptides of protein M of SARS-CoV Urbani / Binding of serum 6 to linear peptides of protein X3 of SARS-CoV Urbani / Binding of serum 37 to linear peptides of protein X3 of SARS-CoV Urbani / Binding of serum 37 to looped/cyclic peptides of protein X3 of SARS-CoV Urbani / Binding of serum 6 to linear peptides of protein X4 of SARS-CoV Urbani / Binding of serum 37 to linear peptides of protein X4 of SARS-CoV Urbani / Binding of serum 37 to looped/cyclic peptides of protein X4 of SARS-CoV Urbani / Binding of serum 6 to linear peptides of protein X5 of SARS-CoV Urbani / Binding of serum 37 to linear peptides of protein X5 of SARS-CoV Urbani / Binding of serum 37 to looped/cyclic peptides of protein X5 of SARS-CoV Urbani / Binding of serum 6 to linear peptides of protein N of SARS-CoV Urbani / Binding of serum 37 to linear peptides of protein N of SARS-CoV Urbani / Binding of serum 6 to linear peptide (PEPSCAN-ELISA) / Binding of serum 1a to looped/cyclic peptides of protein N of SARS-CoV Urbani / Binding of serum 1b to looped/cyclic peptides of protein N of SARS-CoV Urbani / Binding of serum 2 to looped/cyclic peptides of protein N of SARS-CoV Urbani / Binding of serum 6 to looped/cyclic peptides of protein N of SARS-CoV Urbani / Binding of serum 37 to looped/cyclic peptides of protein N of SARS-CoV Urbani / Binding of serum 62 to looped/cyclic peptides of protein N of SARS-CoV Urbani / Binding of serum London to looped/cyclic peptides of protein N of SARS-CoV Urbani / Binding of serum SARS-green to looped/cyclic peptides of protein N of SARS-CoV Urbani: unit not given here
[2] = test system: control sera (pooled serum of ten healthy LUMC hospital workers; commercial negative donor pooled serum from the Dutch bloodbank); assay type: binding, human; design: Binding of Control serum LUMC to linear peptides / Binding of Control serum Blood-bank to linear peptides / Binding of Control serum LUMC to looped peptides / Binding of Control Serum Blood-Bank to Looped peptides / Binding of Control serum LUMC to linear peptides of the protein M of SARS-CoV Urbani / Binding of Control serum Blood-bank to linear peptides of the protein M of SARS-CoV Urbani / Binding of Control serum LUMC to looped peptides of the protein M of SARS-CoV Urbani / Binding of Control Serum Blood-Bank to Looped peptides of the protein M of SARS-CoV Urbani: unit not given here
[3] = test system: rabbit serum obtained by immunizing a rabbit with the SARS-CoV strain Frankfurt 1; assay type: binding; design: Binding of a rabbit serum to linear peptides / Binding of a rabbit serum to looped peptides / Rabbit serum linear peptides / Rabbit serum looped peptides / Binding of a rabbit serum to linear peptides of protein N of SARS-CoV Urbani (Rabbit serum linear peptides) / Binding of a rabbit serum to looped/cyclic peptides of protein N of SARS-CoV Urbani (Rabbit serum looped peptides): unit not given here

SCELYHYQECVRGTT
0.2: Binding of serum SARS-green to looped/cyclic peptides of protein X4 of SARS-CoV Urbani [1] | Binding of serum SARS-yellow to linear peptides of protein X4 of SARS-CoV Urbani [1] | Binding of serum SARS-yellow to looped/cyclic peptides of protein X4 of SARS-CoV Urbani [1]
0.6: Binding of serum 1b to linear peptides of protein X4 of SARS-CoV Urbani [1] | Binding of serum 37 to looped/cyclic peptides of protein X4 of SARS-CoV Urbani [1] | Binding of serum 62 to linear peptides of protein X4 of SARS-CoV Urbani [1] | Binding of Control Serum Blood-Bank to Looped peptides [2]
0.4: Binding of serum 1b to looped/cyclic peptides of protein X4 of SARS-CoV Urbani [1] | Binding of serum 2 to linear peptides of protein X4 of SARS-CoV Urbani [1] | Rabbit serum linear peptides [3]
0.7: Binding of serum 37 to linear peptides of protein X4 of SARS-CoV Urbani [1]
0.5: Binding of serum 1a to looped/cyclic peptides of protein X4 of SARS-CoV Urbani [1] | Binding of serum 2 to looped/cyclic peptides of protein X4 of SARS-CoV Urbani [1] | Binding of serum 6 to linear peptides of protein X4 of SARS-CoV Urbani [1] | Binding of serum 6 to looped/cyclic peptides of protein X4 of SARS-CoV Urbani [1] | Binding of serum 62 to looped/cyclic peptides of protein X4 of SARS-CoV Urbani [1] | Binding of serum SARS-green to linear peptides of protein X4 of SARS-CoV Urbani [1] | Binding of Control serum Blood-bank to linear peptides [2]
0.8: Binding of serum 1a to linear peptides of protein X4 of SARS-CoV Urbani [1] | Binding of serum London to linear peptides of protein X4 of SARS-CoV Urbani [1] | Binding of Control serum LUMC to looped peptides [2]
0.3: Binding of serum London to looped/cyclic peptides of protein X4 of SARS-CoV Urbani [1] | Binding of Control serum LUMC to linear peptides [2]
0.0: Rabbit serum looped peptides [3]

EQWNLVIGFLFLAWI
0.4: Binding of serum 6 to looped/cyclic peptides of protein M of SARS-CoV Urbani [1] | Binding of serum 37 to linear peptides of protein M of SARS-CoV Urbani [1] | Binding of serum London to linear peptides of protein M of SARS-CoV Urbani [1] | Binding of serum SARS-green to linear peptides of protein M of SARS-CoV Urbani [1] | Binding of serum SARS-green to looped/cyclic peptides of protein M of SARS-CoV Urbani [1] | Binding of Control serum LUMC to linear peptides of the protein M of SARS-CoV Urbani [2] | Rabbit serum looped peptides [3]
0.3: Binding of serum SARS-yellow to linear peptides of protein M of SARS-CoV Urbani [1]
0.7: Binding of serum 1a to linear peptides of protein M of SARS-CoV Urbani [1] | Binding of serum 1a to looped/cyclic peptides of protein M of SARS-CoV Urbani [1] | Binding of serum 37 to looped/cyclic peptides of protein M of SARS-CoV Urbani [1] | Binding of serum 62 to looped/cyclic peptides of protein M of SARS-CoV Urbani [1] | Binding of Control serum LUMC to looped peptides of the protein M of SARS-CoV Urbani [2]
0.2: Binding of serum London to looped/cyclic peptides of protein M of SARS-CoV Urbani [1] | Rabbit serum linear peptides [3]
0.6: Binding of serum 1b to looped/cyclic peptides of protein M of SARS-CoV Urbani [1] | Binding of serum 2 to looped/cyclic peptides of protein M of SARS-CoV Urbani [1] | Binding of serum SARS-yellow to looped/cyclic peptides of protein M of SARS-CoV Urbani [1] | Binding of Control Serum Blood-Bank to Looped peptides of the protein M of SARS-CoV Urbani [2]
0.5: Binding of serum 1b to linear peptides of protein M of SARS-CoV Urbani [1] | Binding of serum 2 to linear peptides of protein M of SARS-CoV Urbani [1] | Binding of serum 6 to linear peptides of protein M of SARS-CoV Urbani [1] | Binding of serum 62 to linear peptides of protein M of SARS-CoV Urbani [1] | Binding of Control serum Blood-bank to linear peptides of the protein M of SARS-CoV Urbani [2]
